Test results: the Deep4Chem optical property database

Test: solvent given as SMILES

SMILES: CN(C)c1cccc(/C=C/c2ncc(-c3ccc(OCc4ccccc4)c(OCc4ccccc4)c3)o2)c1
- absorption maximum (in ClCCl): 350 nm

SMILES: Clc1ccccc1N1c2sc3ccccc3c2Sc2sc3ccccc3c21
- absorption maximum (in ClCCl): 314 nm

SMILES: COc1ccc2c(-c3nc(-c4cccc(Br)c4)no3)cc(=O)oc2c1
- absorption maximum (in CCO): 259 nm
- absorption maximum (in ClC(Cl)Cl): 360 nm

SMILES: CCCCCCCCCCCCOc1cc(/C=C/c2ccc3c(c2)C(CC)(CC)c2cc(N4c5ccccc5Sc5ccccc54)ccc2-3)c(OCCCCCCCCCCCC)cc1/C=C/c1ccc2c(c1)C(CC)(CC)c1cc(N3c4ccccc4Sc4ccccc43)ccc1-2
- absorption maximum (in C1CCOC1): 442.41 nm
- absorption maximum (in CC#N): 436.72 nm
- absorption maximum (in CCCCCC): 436.38 nm
- absorption maximum (in Cc1ccccc1): 442.93 nm
- absorption maximum (in ClCCl): 420 nm

SMILES: C1=Cc2ccccc2C(=Cc2ccc(-c3cc(-c4ccc(C=C5c6ccccc6C=Cc6ccccc65)cc4)c(-c4ccc(C=C5c6ccccc6C=Cc6ccccc65)cc4)cc3-c3ccc(C=C4c5ccccc5C=Cc5ccccc54)cc3)cc2)c2ccccc21
- absorption maximum (in C1CCOC1): 324 nm

SMILES: [NH3+]C(Cc1ccc(O)cc1)C(=O)[O-] (stereo not drawn)
- absorption maximum (in O): 274 nm

SMILES: Cc1ccc2nc3cc4c(cc3c(-c3ccccc3)c2c1)[Si](C)(C)O[Si](C)(C)O[Si]4(C)C
- absorption maximum (in ClCCl): 371 nm

SMILES: F[B-]1(F)n2c(c(-c3ccccc3)c(-c3ccccc3)c2-c2ccccc2)C(c2ccccc2)=C2C(c3ccccc3)=C(c3ccccc3)C(c3ccccc3)=[N+]21
- absorption maximum (in C1CCOC1): 573 nm

SMILES: O=c1cc[nH]c(=O)[nH]1
- absorption maximum (in CC#N): 256 nm

SMILES: CCCCc1ccc2ccc3c(CCCC)cc(CCCC)c4ccc1c2c34
- absorption maximum (in CCCCCC): 352 nm
- absorption maximum (in CO): 351 nm
- absorption maximum (in ClCCl): 354 nm

SMILES: CC(C)(C)c1ccc2c3c(c4ccc(C(C)(C)C)cc4c2c1)=[N+]1C(=C(c2ccccc2)c2cc4c5ccc(C(C)(C)C)cc5c5cc(C(C)(C)C)ccc5c4n2[B-]1(F)F)C=3
- absorption maximum (in C1CCCCC1): 693 nm
- absorption maximum (in C1CCOC1): 689 nm
- absorption maximum (in CC#N): 683 nm
- absorption maximum (in Cc1ccccc1): 694 nm
- absorption maximum (in ClCCl): 691 nm

SMILES: CCCCCCn1c2cc(/C=C/c3cccs3)ccc2c2ccc(/C=C/c3cccs3)cc21
- absorption maximum (in ClC(Cl)Cl): 408.16 nm

SMILES: CC(C)(C)c1ccc2c(c1)c1cc(C(C)(C)C)ccc1n2-c1cc(C(=O)c2cccnc2)cc(-n2c3ccc(C(C)(C)C)cc3c3cc(C(C)(C)C)ccc32)c1
- absorption maximum (in Cc1ccccc1): 381 nm

SMILES: N#Cc1cc(C#N)c(-c2ccc(N(c3ccccc3)c3ccccc3)cc2)cc1-c1ccc(N(c2ccccc2)c2ccccc2)cc1
- absorption maximum (in Cc1ccccc1): 394 nm

SMILES: CCCCCCCCC(=O)Oc1cc2[nH]c(cc2CCOC)c2nc(ccc3[nH]c(cc3CCOC)c3nc1C(CCOC)=C3)C(CCOC)=C2
- absorption maximum (in Cc1ccccc1): 647 nm

SMILES: CCn1c2ccccc2c2ccc(C#N)cc21
- absorption maximum (in C1CCCCC1): 366 nm

SMILES: O=c1cc(-c2ccccc2)oc(-c2nc3ccccn3c2NC2CCCCC2)c1
- absorption maximum (in ClCCl): 353 nm

SMILES: Cc1ccc(-c2ccc3ccc4cc(C(C)(C)C)cc5ccc2c3c45)cc1
- absorption maximum (in C1CCOC1): 342 nm
- absorption maximum (in ClCCl): 342 nm

SMILES: COC(=O)C1=C(C(=O)OC)C2(c3cc([N+](=O)[O-])ccc3-c3ccc([N+](=O)[O-])cc32)C2(/C=C/c3ccccc3)c3cc(OC)c(OC)cc3CCN12 (stereo not drawn)
- absorption maximum (in ClCCl): 337 nm

SMILES: C[Si](C)(C)c1sc([Si](C)(C)C)c2c1sc1c2sc2sc3sc4c(sc5c([Si](C)(C)C)sc([Si](C)(C)C)c54)c3c21
- absorption maximum (in ClC(Cl)Cl): 332 nm

SMILES: COC(=O)c1cc(/N=N/c2cc3c4c(c2)CCCN4CCC3)cc(C(=O)OC)c1
- absorption maximum (in CCOC(C)=O): 471 nm

SMILES: CCCCOC(=O)/C(C#N)=C1\C(=CC2=[N+](C)c3ccccc3C2(C)C)C([O-])=C1C=C1N(C)c2ccccc2C1(C)C
- absorption maximum (in ClC(Cl)Cl): 691 nm

SMILES: O=C1c2ccccc2-c2c(-c3cc(Br)ccc3O)[nH]c(=O)n21
- absorption maximum (in CC#N): 390 nm
- absorption maximum (in CO): 400 nm
- absorption maximum (in ClCCl): 396 nm

SMILES: C[Si](C)(C)O[Si]1(O[Si](C)(C)C)n2c3c4ccccc4c2/N=C2N=C(/N=c4/c5ccccc5/c(n41)=N/C1=NC(=N\3)/c3ccccc31)c1ccccc1\2
- absorption maximum (in CN(C)C=O): 668 nm

SMILES: CCCCNC(=O)c1nc2c(N(C)C)nc(N(C)C)nc2n1Cc1ccccc1
- absorption maximum (in C1COCCO1): 332 nm
- absorption maximum (in CC#N): 333 nm
- absorption maximum (in CO): 335 nm
- absorption maximum (in ClCCl): 338 nm

SMILES: c1cc2ccc3ccc4cc3c2cc1CCCCCCc1ccc2ccc3ccc-4cc3c2c1
- absorption maximum (in Cc1ccccc1): 336 nm

SMILES: CC(C)[Si](C#Cc1ccc(-c2c3cccc4c5cccc6c(-c7ccc(C#C[Si](C(C)C)(C(C)C)C(C)C)cc7)c7cccc8c9cccc2c9c(c34)c(c65)c78)cc1)(C(C)C)C(C)C
- absorption maximum (in Cc1ccccc1): 727 nm

SMILES: Cc1ccc(-n2cccc2)cc1
- absorption maximum (in CC#N): 254 nm
- absorption maximum (in CCCCCC): 254 nm

SMILES: CCOC(=O)C1=C(C(=O)OCC)C2(c3ccccc3-c3c(Br)cc(Br)cc32)C2(/C=C/c3ccc(Cl)cc3)c3cc(OC)c(OC)cc3CCN12 (stereo not drawn)
- absorption maximum (in ClCCl): 329 nm

SMILES: Cc1ccc(-n2c(-c3ccccc3N)nc3c4ccccc4c4ccccc4c32)cc1
- absorption maximum (in Cc1ccccc1): 311 nm

SMILES: CN(C)c1ccc(C(=O)Nc2ccc([N+](=O)[O-])cc2)cc1
- absorption maximum (in C1CCCCC1): 337 nm
- absorption maximum (in C1CCOC1): 353 nm
- absorption maximum (in CC#N): 354 nm
- absorption maximum (in CCOCC): 345 nm

SMILES: COc1ccc2c(c1)CCc1c(-c3ccccc3)c3n(c1-2)[B-](F)(F)[N+]1=C2C=NC=CN2[B-](F)(F)[N+]1=C3
- absorption maximum (in ClCCl): 546 nm

SMILES: CCN(CC)c1ccc2c(-c3ccccc3C(=O)O)c3c([o+]c2c1)/C(=C/c1ccc(N(C)C)s1)CCC3
- absorption maximum (in ClCCl): 733 nm

SMILES: C(=C\c1ccc(Nc2ccccc2)cc1)/c1ccccc1
- absorption maximum (in CC#N): 351 nm
- absorption maximum (in CCCCCC): 346 nm

SMILES: COc1ccc(-c2nc(-c3cccc(C#N)c3)[nH]c2-c2ccc(OC)cc2)cc1
- absorption maximum (in CO): 327 nm

SMILES: CCOC(=O)c1c2c3c(ccc([N+](=O)[O-])c3c3cc4c(cc13)[Si](C)(C)O[Si]4(C)C)N(C)C2=O
- absorption maximum (in CC#N): 376 nm
